Data: patent US20220259235A1, “EGFR Inhibitor, Composition, and Preparation Method Therefor” (BETTA PHARMACEUTICALS CO., LTD, priority 2019, published 2022)

Legend:
[1] = Liver microsomal clearance test, mice; format: in vitro ADME; settings: Mice liver microsomes, 0.5 mg/mL, NADPH
Protocol: (§1) Test 3 Liver Microsomal Clearance Test
(§2) 1. Prepare 0.5 mg/mL liver microsome diluent containing K-butter and MgCl2:
(§3) 2.1 Take 356 μL of the liver microsome diluent prepared above and add it to the preset wells of the incubation plate, the number of multiple wells n=1, mark it as the incubation plate.
(§4) 2.2 Take 4 μL of the positive control compound Verapamil (50 μM) and the working solution of the test compound (200 μM) into the above incubation plate containing 356 μL of liver microsome diluent, and mix well (The dilution solvent from the stock solution to the working solution is a mixed solvent of acetonitrile: methanol: water=1:1:2, and the final concentration of DMSO is ≤0.5%),
(§5) 2.3 Place the incubation plate in a 37° C. thermostatic oscillator (at shaking speed of 100 rpm) for pre-incubation with 10 min.
(§6) 2.4 Add 40 μL of 10 mM NADPH (add 40 μL of K-buffer to the wells without NADPH) to each reaction well to start the reaction and start timing.
(§7) 3. Sample collection and treatment:
(§8) 3.1 After adding NADPH to start the reaction, immediately take out 50 μL of the sample and add it to the precipitation plate pre-added with 400 μL of stop solution, and shake on an oscillator at 600 rpm for 5 min at room temperature as a 0 min sample.
(§9) 3.2 At the predetermined time points of 5 min, 15 min and 45 min, take out 50 μL of sample from the incubation plate and add it to the precipitation plate. The subsequent steps were the same as the treatment of 0 min sample. 3.3 After balancing, centrifuge above precipitation plate at 3200 rpm for 10 min at 4° C.
(§10) 3.4 Take 50 μL of the supernatant after centrifugation and add it to pre-added 20% acetonitrile water at appropriate proportion, shake on an oscillator at 600 rpm for 2 min at room temperature, mix well, and put it into the LC-MS/MS sampler for sample injection.
(§11) Analysis of Experimental Data
1. […]

Ba/F3-Δ19del/T790M/C797S = Ba/F3-Δ19del/T790M/C797S (Homo sapiens, UniProt P00533, T790M/C797S, cells depend on it, form not given); experiment: Ba/F3-Δ19del/T790M/C797S cell proliferation assay (CellTiter Glo, 72 h); format: cell-based; settings: CTG, numeric values, read-out: BaF3 Δ19del/T790M/C797S IC50
Chain of Ba/F3-Δ19del/T790M/C797S (P00533 with tags, fused parts or gaps DEL746-750/T790M/C797S, form open): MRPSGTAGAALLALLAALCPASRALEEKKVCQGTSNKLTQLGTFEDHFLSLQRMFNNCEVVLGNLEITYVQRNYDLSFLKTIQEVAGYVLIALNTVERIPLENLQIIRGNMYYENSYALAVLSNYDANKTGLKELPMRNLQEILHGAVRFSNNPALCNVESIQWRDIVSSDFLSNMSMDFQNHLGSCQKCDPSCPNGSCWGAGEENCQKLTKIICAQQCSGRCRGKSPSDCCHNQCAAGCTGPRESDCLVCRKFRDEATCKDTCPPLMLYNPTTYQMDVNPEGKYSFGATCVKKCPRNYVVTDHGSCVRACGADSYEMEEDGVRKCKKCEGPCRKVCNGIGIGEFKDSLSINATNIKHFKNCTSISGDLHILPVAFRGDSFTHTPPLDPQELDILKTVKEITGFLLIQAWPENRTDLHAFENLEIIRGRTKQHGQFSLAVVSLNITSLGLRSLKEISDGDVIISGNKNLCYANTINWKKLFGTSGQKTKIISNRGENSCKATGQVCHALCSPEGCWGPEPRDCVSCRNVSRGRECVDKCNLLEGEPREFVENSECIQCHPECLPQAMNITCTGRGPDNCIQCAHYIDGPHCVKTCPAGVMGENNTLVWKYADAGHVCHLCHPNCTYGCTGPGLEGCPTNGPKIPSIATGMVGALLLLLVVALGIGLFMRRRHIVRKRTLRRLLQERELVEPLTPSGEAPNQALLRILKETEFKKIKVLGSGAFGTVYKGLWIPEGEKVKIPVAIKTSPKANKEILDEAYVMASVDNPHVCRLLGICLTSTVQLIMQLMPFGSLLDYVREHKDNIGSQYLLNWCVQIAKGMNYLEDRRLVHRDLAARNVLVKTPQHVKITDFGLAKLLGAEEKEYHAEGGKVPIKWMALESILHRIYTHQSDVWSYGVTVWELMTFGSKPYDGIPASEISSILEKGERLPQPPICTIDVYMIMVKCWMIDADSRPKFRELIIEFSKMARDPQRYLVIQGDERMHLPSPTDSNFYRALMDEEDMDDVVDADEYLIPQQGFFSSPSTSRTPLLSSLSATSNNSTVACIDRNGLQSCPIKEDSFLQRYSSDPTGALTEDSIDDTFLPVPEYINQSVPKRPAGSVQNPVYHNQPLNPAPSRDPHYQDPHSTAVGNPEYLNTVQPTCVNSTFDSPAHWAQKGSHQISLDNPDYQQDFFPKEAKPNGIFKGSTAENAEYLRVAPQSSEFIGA
Outline: (§12)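 Cells seeded at 2000/well and exposed 72 h to compound at 1000 to 0.2 nM (0.1% DMSO). Viability read by CellTiter-Glo luminescence; IC50 from four-parameter nonlinear regression of signal vs. log concentration.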

hERG protein = target: T1, hERG protein (Homo sapiens, UniProt Q12809); experiment: hERG IC50 test (tracer/membranes fluorescence polarization); format: binding; settings: hERG membranes and tracer, read-out: IC50 results of hERG protein to compound
T1 construct: purchased
T1 sequence (Q12809 whole entry): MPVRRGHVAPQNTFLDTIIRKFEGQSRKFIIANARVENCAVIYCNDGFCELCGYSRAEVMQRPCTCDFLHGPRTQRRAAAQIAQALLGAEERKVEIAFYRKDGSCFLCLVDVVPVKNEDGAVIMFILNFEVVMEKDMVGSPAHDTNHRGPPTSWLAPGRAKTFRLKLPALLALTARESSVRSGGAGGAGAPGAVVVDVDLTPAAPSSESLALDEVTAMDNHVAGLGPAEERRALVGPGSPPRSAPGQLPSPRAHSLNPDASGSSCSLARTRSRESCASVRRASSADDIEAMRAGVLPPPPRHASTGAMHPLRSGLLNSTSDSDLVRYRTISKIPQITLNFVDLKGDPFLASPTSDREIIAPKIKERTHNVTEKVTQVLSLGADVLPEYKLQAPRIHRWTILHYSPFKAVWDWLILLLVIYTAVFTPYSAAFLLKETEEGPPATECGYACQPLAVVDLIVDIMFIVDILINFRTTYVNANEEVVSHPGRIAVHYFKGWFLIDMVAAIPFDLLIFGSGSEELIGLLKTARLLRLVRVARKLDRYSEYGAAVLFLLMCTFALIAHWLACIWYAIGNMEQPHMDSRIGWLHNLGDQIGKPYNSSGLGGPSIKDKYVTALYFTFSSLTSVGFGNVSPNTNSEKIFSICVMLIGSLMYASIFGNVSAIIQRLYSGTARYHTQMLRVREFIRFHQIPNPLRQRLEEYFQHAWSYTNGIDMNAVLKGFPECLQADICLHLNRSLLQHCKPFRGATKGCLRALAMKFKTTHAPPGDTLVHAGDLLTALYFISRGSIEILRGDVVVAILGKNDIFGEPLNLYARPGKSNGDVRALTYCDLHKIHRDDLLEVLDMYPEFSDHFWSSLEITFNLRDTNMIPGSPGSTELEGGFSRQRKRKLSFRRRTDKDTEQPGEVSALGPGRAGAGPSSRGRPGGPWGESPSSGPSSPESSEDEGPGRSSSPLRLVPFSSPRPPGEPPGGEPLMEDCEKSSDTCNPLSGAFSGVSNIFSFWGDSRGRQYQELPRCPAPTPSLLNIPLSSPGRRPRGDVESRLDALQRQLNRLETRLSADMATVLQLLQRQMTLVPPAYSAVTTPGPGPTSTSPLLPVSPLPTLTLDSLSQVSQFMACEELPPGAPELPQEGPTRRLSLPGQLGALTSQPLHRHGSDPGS
Protocol: 1. Thaw hERG kits (Tracer, E-4031 and Membranes) at room temperature;
2. Add 10 μL of positive compound E-4031 and 10 μL of test compound (10 mM) to 384 well plate (Corning, Art. No. 3658);
3. E-4031 is sequentially 5-fold diluted by pure water (10 concentration points in total), and the test compound is sequentially 5-fold diluted by DMSO (10 concentration points in total).
4. Take 1 μL of all gradient concentrations and add them in parallel to the wells containing 24 μL Assay buffer, and dilute 25 times (take 3 μL of the maximum concentration of E-4031 and add it to 72 μL Assay buffer).
5. Add 10 μL Membranes to another black 384-well plate (Coming, Art.4511).
6. Take 5 μL of 25-fold diluted working solution of positive and test compounds, and add it to above-mentioned plate with 10 μL Membranes, 2 copies at each concentration.
7. Negative control: Add 5 μL Assay buffer to the well with 10 μL Membranes, 8 copies in parallel;
8. Positive control: Add 5 μL E-4031 (120 μM) to the well with 10 μL Membranes, 8 copies in parallel;
9. […]
10. Before measuring the fluorescence polarization, cover the analysis plate to protect the reagents from light and evaporation, and incubate at room temperature (20-25° C.) for 2 hours.
11. Read fluorescence polarization in PerkinElmer EnVision® Multilabel after incubation; […]

[2] = test system: A431 EGFR wild-type cell line; experiment: A431 EGFR wild-type cell proliferation assay (CellTiter Glo, 72 h); format: cell-based; settings: Homo sapiens, A-431, CTG, read-out: A431 EGFR WT IC50
Outline: as §12

[3] = Liver microsomal clearance test, human; format: in vitro ADME; settings: Human liver microsomes, 0.5 mg/mL, NADPH
Protocol: as §1, §2, §3, §4, §5, §6, §7, §8, §9, §10, §11
1. […]

Instrinsic clearance of liver microsomal protein, CLint [1]: 6.6 μL/min/mg proteins | GI50 (Ba/F3-Δ19del/T790M/C797S): 2.1 nM | IC50 [2]: 112 nM | Instrinsic clearance of liver microsomal protein, CLint [3]: 2.4 μL/min/mg proteins
SMILES: COc1cc(N2CCC(N3CCN(C)CC3)CC2)c(-c2cnn(C)c2)cc1Nc1ncc(Cl)c(Nc2ccc3nccnc3c2P(C)(C)=O)n1 [Compound 1, (6-((5-Chloro-2-((2-methoxy-5-(1-methyl-1hydro-pyrazol-4-yl)-4-(4-(4-methylpiperazine-1-yl)piperidin-1-yl)phenyl)amino)pyrimidin-4-yl)amino)quinoxalin-5-yl)dimethylphosphine oxide]
IC50 (hERG protein): > 30000 nM
